Experimental data from ChEMBL document CHEMBL1131161 (J Med Chem, 1998).

Columns and labels:
CV-1 [1] = assay: Inhibitory concentration in CV-1 cell; assay type: functional, cell-based, Cercopithecidae; conditions: Chlorocebus aethiops
Progesterone receptor [2] = target: T1, Progesterone receptor (Homo sapiens, UniProt P06401); assay: Binding affinity against human progesterone receptor
T1 sequence (P06401 whole entry): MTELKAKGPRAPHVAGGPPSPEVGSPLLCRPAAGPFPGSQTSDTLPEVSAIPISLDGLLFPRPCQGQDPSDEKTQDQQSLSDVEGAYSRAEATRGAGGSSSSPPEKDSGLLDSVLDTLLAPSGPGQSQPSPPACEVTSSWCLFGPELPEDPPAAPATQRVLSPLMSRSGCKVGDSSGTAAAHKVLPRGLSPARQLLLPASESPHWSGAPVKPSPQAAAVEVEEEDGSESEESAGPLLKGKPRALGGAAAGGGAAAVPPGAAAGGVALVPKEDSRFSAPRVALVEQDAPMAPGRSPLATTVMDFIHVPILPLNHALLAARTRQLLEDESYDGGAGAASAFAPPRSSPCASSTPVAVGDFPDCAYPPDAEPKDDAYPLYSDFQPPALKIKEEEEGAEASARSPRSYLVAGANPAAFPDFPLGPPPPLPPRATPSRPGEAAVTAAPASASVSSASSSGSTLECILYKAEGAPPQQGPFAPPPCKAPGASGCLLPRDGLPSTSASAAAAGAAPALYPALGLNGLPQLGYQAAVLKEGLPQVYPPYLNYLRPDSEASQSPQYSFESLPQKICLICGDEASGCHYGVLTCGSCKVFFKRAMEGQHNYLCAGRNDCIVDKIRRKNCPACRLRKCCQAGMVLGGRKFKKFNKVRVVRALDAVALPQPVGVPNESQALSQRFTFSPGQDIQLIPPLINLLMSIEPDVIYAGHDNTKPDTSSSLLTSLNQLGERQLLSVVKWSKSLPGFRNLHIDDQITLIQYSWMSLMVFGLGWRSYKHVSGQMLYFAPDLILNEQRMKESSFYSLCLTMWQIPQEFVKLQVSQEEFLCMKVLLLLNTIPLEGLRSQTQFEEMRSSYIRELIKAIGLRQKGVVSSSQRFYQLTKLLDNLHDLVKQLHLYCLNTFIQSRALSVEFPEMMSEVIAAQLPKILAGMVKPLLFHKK

Estrogen receptor = Estrogen receptor (Homo sapiens, UniProt Q92731+P03372); conditions: cv-1
Description: IC50 determined against human estrogen receptor in CV-1 cells

Androgen receptor [3] = target: T2, Androgen receptor (Homo sapiens, UniProt P10275)
T2 sequence (P10275 whole entry): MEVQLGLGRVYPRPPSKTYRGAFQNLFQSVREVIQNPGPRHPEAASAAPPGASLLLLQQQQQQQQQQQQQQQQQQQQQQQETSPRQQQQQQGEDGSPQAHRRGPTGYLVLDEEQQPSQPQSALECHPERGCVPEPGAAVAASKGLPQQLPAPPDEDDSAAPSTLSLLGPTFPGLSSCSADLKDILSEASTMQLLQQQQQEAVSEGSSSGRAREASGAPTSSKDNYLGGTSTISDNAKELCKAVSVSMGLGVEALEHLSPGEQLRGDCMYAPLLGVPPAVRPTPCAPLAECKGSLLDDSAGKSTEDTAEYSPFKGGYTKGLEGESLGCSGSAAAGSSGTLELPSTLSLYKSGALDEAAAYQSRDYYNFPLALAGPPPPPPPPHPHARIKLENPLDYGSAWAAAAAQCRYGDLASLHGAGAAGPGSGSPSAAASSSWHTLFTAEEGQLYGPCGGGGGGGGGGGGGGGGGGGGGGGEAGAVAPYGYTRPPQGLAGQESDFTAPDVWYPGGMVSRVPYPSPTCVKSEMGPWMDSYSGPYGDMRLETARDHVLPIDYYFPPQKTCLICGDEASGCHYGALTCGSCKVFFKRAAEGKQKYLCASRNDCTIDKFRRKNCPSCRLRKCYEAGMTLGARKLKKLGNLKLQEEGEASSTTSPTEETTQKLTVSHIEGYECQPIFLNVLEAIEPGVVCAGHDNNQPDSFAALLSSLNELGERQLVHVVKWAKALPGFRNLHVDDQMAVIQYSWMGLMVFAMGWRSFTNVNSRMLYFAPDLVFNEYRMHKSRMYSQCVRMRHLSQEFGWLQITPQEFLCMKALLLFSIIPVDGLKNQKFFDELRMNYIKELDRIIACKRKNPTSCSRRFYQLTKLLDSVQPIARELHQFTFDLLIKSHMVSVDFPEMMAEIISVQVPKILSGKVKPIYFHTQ
Description: Inhibitory activity (IC50) against human androgen receptor expressed in CV-1 cells

Glucocorticoid receptor [4] = target: T3, Glucocorticoid receptor (Homo sapiens, UniProt P04150)
T3 sequence (P04150 whole entry): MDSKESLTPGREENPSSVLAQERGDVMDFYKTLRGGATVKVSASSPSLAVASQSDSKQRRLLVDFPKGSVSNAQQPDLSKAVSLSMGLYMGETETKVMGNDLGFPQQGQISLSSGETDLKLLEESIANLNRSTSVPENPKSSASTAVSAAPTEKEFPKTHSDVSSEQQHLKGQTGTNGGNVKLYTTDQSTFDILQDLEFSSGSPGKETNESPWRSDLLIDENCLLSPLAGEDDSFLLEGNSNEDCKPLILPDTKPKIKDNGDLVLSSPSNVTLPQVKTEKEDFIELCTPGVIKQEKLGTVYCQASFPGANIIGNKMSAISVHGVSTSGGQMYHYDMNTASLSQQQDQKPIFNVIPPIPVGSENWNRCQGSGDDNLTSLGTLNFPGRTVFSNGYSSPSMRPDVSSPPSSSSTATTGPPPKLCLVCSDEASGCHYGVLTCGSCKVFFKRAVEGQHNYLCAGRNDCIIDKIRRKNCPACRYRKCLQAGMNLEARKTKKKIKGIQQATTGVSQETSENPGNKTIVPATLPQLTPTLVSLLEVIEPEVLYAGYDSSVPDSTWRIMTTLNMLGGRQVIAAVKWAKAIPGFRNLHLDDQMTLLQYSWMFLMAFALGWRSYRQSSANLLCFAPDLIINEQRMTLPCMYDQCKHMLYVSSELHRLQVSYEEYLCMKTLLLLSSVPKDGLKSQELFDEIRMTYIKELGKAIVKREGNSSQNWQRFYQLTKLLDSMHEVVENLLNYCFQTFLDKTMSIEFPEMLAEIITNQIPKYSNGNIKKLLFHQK
Description: Inhibitory activity (IC50) against human glucocorticoid receptor expressed in CV-1 cells

[5] = target: T4, Mineralocorticoid receptor (Homo sapiens, UniProt P08235); assay: Inhibitory activity (IC50) against human mineralocorticoid receptor expressed in CV-1 cells; assay type: functional, cell-based
T4 sequence (P08235 whole entry): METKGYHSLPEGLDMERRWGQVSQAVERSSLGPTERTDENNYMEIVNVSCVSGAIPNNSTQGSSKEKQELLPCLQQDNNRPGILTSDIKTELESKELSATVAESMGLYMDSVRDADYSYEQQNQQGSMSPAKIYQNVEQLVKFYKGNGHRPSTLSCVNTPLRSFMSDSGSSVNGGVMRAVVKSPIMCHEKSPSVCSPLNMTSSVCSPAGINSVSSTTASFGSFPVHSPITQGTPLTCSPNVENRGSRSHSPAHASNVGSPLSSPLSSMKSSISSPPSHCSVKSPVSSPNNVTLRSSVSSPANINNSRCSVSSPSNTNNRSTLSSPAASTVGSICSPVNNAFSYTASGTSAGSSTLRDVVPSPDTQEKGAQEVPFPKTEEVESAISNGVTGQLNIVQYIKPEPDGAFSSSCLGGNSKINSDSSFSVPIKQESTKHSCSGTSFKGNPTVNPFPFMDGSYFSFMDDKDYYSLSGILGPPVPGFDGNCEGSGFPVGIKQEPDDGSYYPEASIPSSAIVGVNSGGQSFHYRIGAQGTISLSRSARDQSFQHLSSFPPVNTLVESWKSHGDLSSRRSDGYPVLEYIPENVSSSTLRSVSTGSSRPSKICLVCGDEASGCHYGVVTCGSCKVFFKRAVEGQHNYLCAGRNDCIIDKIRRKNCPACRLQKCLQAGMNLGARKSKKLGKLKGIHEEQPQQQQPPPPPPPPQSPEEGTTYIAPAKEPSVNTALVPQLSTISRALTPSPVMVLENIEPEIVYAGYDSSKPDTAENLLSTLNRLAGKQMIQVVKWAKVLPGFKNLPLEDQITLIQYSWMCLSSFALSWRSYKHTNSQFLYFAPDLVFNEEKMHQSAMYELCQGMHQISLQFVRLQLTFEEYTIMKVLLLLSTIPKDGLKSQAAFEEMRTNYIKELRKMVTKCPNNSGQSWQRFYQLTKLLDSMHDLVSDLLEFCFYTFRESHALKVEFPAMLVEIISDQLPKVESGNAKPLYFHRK

Glucocorticoid receptor [6] = target: T3, Glucocorticoid receptor; assay: biochemical
Description: Binding affinity against human glucocorticoid receptor expressed in SF-12 cells

Androgen receptor [7] = target: T2, Androgen receptor; remark: listed apart in the source
Description: Binding affinity against human androgen receptor

Progesterone receptor [8] = target: T1, Progesterone receptor; assay: Effective concentration (EC50) against human progesterone receptor expressed in CV-1 cell; assay type: functional, cell-based
CV-1 [9] = assay: Inhibitory concentration was determined from full dose response curves ranging from 10 E -12 to 10 E -5M in CV-1 cell; assay type: functional, Cercopithecidae
CV-1 [10] = assay: inhibitory concentration was determined from full dose response curves ranging from 10 E -12 to 10 E -5M in CV-1 cell; assay type: functional, cell-based, Cercopithecidae; conditions: Chlorocebus aethiops

IC50 (CV-1 [1]) [nM]	Ki (Progesterone receptor [2]) [nM]	EC50 (Progesterone receptor [8]) [nM]	Compound	other results
290			CC1=CC(C)(C)Nc2ccc3c(c21)C(c1ccccc1)Oc1ccccc1-3 (centres undefined)	
> 10000	4.9	24.4	CC1=CC(C)(C)Nc2ccc3c(c21)/C(=C/c1ccccc1)Oc1ccccc1-3	IC50 (Estrogen receptor): > 10000 nM; IC50 (Androgen receptor [3]): 650 nM; IC50 (Glucocorticoid receptor [4]): 737 nM; IC50 [5]: 3000 nM; Ki (Glucocorticoid receptor [6]): 299 nM; Ki (Androgen receptor [7]): 2660 nM
531	24.3	26.3	CC1=CC(C)(C)Nc2ccc3c(c21)/C(=C/c1cccc(F)c1F)Oc1ccccc1-3	
> 10000	3.5	59.5	CC1=CC(C)(C)Nc2ccc3c(c21)/C(=C/c1ccc(F)cc1)Oc1ccccc1-3	
880	60	139	CC1=CC(C)(C)Nc2ccc3c(c21)/C(=C/c1ccc(Cl)cc1)Oc1ccccc1-3	
> 10000	8.7	31.5	CC1=CC(C)(C)Nc2ccc3c(c21)/C(=C/c1ccc(Br)cc1)Oc1ccccc1-3	
> 10000	22.1	37	CC1=CC(C)(C)Nc2ccc3c(c21)/C(=C/c1cccc(Br)c1)Oc1ccccc1-3	
270	2.1	16.8	CC1=CC(C)(C)Nc2ccc3c(c21)C(Cc1ccccc1)Oc1ccccc1-3 (centres undefined)	
590	70	> 10000	CC1=CC(C)(C)Nc2ccc3c(c21)/C(=C/c1ccc(C)cc1)Oc1ccccc1-3	
425	53.3	> 10000	COc1cccc(/C=C2\Oc3ccccc3-c3ccc4c(c32)C(C)=CC(C)(C)N4)c1	
> 10000	0.83	7.6	CC1=CC(C)(C)Nc2ccc3c(c21)/C(=C/c1cccc(F)c1)Oc1ccccc1-3	IC50 (Estrogen receptor): > 10000 nM; IC50 (Androgen receptor [3]): 795 nM; IC50 (Glucocorticoid receptor [4]): 458 nM; IC50 [5]: > 10000 nM; Ki (Glucocorticoid receptor [6]): 180 nM; Ki (Androgen receptor [7]): 798 nM
> 10000	5.5	57.8	CC1=CC(C)(C)Nc2ccc3c(c21)/C(=C/c1ccccc1Br)Oc1ccccc1-3	
> 10000	18.7	117	CC1=CC(C)(C)Nc2ccc3c(c21)/C(=C/c1cccc(Cl)c1)Oc1ccccc1-3	
> 10000	12.6	47.7	CC1=CC(C)(C)Nc2ccc3c(c21)/C(=C/c1cc(F)cc(F)c1)Oc1ccccc1-3	
> 10000	39.7	75	CC1=CC(C)(C)Nc2ccc3c(c21)/C(=C/c1cccc(C)c1)Oc1ccccc1-3	
220	31.3	32	CC1=CC(C)(C)Nc2ccc3c(c21)/C(=C/c1c(F)cccc1F)Oc1ccccc1-3	
550		22	CC1=CC(C)(C)Nc2ccc3c(c21)/C(=C/c1ccc(F)cc1F)Oc1ccccc1-3	
> 10000	5.6	29	CC1=CC(C)(C)Nc2ccc3c(c21)/C(=C/c1ccccc1F)Oc1ccccc1-3	
			CC(=O)O[C@]1(C(C)=O)CC[C@H]2[C@@H]3C[C@H](C)C4=CC(=O)CC[C@]4(C)[C@H]3CC[C@@]21C [MEDROXYPROGESTERONE ACETATE]	IC50 (Glucocorticoid receptor [4]): 10 nM; IC50 (CV-1 [9]): >10000 nM
			CC(=O)[C@H]1CC[C@H]2[C@@H]3CCC4=CC(=O)CC[C@]4(C)[C@H]3CC[C@]12C [PROGESTERONE]	IC50 (CV-1 [10]): > 10000 nM

Compound	IC50 (CV-1 [1]) [nM]	Ki (Progesterone receptor [2]) [nM]	EC50 (Progesterone receptor [8]) [nM]	other results
CC1=CC(C)(C)Nc2ccc3c(c21)/C(=C/c1ccccc1Cl)Oc1ccccc1-3	> 10000	1.3	57.8	
